Measurements published in patent US20170291890A1 (Epizyme, Inc., priority 2014, published 2017).

Molecular target: T1, KDM5A (Homo sapiens, UniProt P29375)
T1 construct: C-terminal FLAG-tagged KDM5A^1-1090 was purchased from BPS Biosciences; FLAG (C); purchased BPS Biosciences
T1 sequence (P29375 1-1090): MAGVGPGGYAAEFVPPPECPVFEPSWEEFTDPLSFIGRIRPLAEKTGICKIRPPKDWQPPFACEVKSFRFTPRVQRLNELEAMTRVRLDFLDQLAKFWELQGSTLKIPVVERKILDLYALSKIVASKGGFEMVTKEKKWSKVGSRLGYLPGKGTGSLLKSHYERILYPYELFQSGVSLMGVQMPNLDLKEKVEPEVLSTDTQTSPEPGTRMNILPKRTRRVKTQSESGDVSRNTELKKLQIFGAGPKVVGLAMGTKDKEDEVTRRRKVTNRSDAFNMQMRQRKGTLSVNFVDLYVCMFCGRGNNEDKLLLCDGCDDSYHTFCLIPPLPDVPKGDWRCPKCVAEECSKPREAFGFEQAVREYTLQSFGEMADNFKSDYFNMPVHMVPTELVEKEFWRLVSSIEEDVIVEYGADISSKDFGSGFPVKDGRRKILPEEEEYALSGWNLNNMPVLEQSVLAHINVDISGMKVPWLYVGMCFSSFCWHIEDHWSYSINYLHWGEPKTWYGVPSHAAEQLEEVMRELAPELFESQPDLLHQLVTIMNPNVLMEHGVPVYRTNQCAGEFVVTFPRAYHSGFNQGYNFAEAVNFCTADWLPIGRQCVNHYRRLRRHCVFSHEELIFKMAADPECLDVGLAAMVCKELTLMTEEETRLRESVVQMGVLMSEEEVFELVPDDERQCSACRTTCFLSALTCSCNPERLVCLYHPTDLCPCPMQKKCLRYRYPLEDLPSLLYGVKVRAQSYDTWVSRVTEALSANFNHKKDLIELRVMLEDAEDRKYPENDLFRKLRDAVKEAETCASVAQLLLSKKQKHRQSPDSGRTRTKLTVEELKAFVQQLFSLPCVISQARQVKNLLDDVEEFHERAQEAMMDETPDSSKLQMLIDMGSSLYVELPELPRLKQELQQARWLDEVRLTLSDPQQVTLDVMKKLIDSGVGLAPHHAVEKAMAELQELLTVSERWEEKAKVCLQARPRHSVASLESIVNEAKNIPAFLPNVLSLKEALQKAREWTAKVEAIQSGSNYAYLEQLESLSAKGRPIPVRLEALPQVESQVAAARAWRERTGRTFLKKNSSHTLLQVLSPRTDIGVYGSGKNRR
Assay: KDM5A Assay (SAMDI mass spectrometry demethylase assay)
Type: biochemical
Conditions: C-terminal FLAG-tagged KDM5A 1-1090; class symbols; read-out: 5A IC50
Description: C-terminal FLAG-tagged KDM5A^1-1090 was purchased from BPS Biosciences. Peptides were synthesized by BioPeptide and all other reagents were purchased from Sigma-Aldrich at the highest level of purity possible. Assays were performed in a 50 μL volume in 384-well V-bottom polypropylene microplates (Greiner) at 25° C. Optimized 1× assay buffer was 50 mM HEPES (pH=8.0), 100 μM sodium ascorbate, 20 mM NaCl, 10 μM ammonium iron sulfate, 1 mM tris(2-carboxyethyl)phosphine (TCEP), 0.002% Tween-20, and 0.005% BSG. For compound screening, 35 μL of […] (final concentration, f.c.=20 nM) was added using a Multidrop Combi and preincubated with 1 μL of test compound (f.c.=10 μM) for 30 minutes and subsequently 15 μL of peptide with the following sequence NH2-ART[Kme-3]QTARKSTGGKA[K-Ahx-Biot]-amide (f.c.=250 nM) and 2-oxoglutarate (f.c.=15 μM) was added by Multidrop Combi to begin the reaction. Reactions proceeded for 150 minutes and were stopped by the addition of 5 μL of formic acid (f.c.=0.5%) using a Multidrop Combi and then analyzed by SAMDI Tech Inc.
SAMDI Tech analyzed all reactions using self-assembled monoloayer desorption/ionization technology as previously described (Gerard-Levin Z A, Scholle M D, Eisenberg A H, et al.: High-throughput screening of small molecule libraries using SAMDI mass spectrometry. ACS Comb Sci 2011; 13:347-350). Briefly, a 2 μL sample of the stopped demethylase reactions were transferred to a SAMDI array coated with 384 biotin-neutravidin spots using a 384-channel pipet station. The SAMDI arrays were incubated for 1 h in a humidified chamber, followed by washing of the surface with deionized ultra-filtered water (DIUF) and drying under nitrogen. A matrix of 30 mg/ml 2′,4′,6′-Trihydroxyacetophenone monohydrate (THAP) in acetone was applied using a TPP Mosquito 1.2 μL tip by dispensing 50 nL on each of the 384 spots on the array. SAMDI-MS was run using acquisition method ReflectorPositiveUTX. The % conversion of substrate to product was calculated using the AUC of the substrate and product peptide peaks.
An IC50 value was determined by contacting various concentrations of a test compound with one of the KDM4A, KDM4C or KDMSC enzyme constructs and plotting a dose-response curve which associates the amount of inhibition of the enzyme relative to the concentration of the test compound. From the curve, the IC50 value (which represents the concentration of the test compound necessary to inhibit maximal enzymatic activity by 50%) was determined. Additionally, the slope of the linear range of the plotted curve, which indicates the speed with which the curve rises between the minimum and maximum, was calculated.

IC50 [nM]	SMILES
1000 to 10000	Cc1c(Nc2cnccc2C(=O)O)cnn1C1CCN(C2CCC2)CC1 [Compound 96]
1000 to 10000	Cc1c(Nc2cnccc2C(=O)O)cnn1C1CCN(CC(F)(F)F)CC1 [Compound 100, 3-(5-methyl-1-(1-(2,2,2-tri-fluoro-ethyl)piperidin-4-yl)-1H-pyrazol-4-ylamino)isonicotinic acid]
1000 to 10000	Cc1cn(-c2ccccc2)c(Nc2cnccc2C(=O)O)n1 [Compound 2]
100 to 1000	O=C(O)c1ccncc1Nc1cn(CCN2CCC(F)(F)CC2)nc1-c1ccccc1 [Compound 17, 3-((1-(2-(4,4-Difluoropiperidin-1-yl)ethyl)-3-phenyl-1H-pyrazol-4-yl)amino)isonicotinic acid]
10000 to 100000	O=C(O)c1ccncc1Nc1cc(-c2ccccc2)nn1[C@H]1CC[C@H](O)CC1 [Compound 39, 3-((1-((trans)-4-hydroxycyclohexyl)-3-phenyl-1H-pyrazol-5-yl)amino)isonicotinic acid]
10000 to 100000	Cc1n[nH]c(C)c1Nc1cnccc1C(=O)O [Compound 16, 3-((3,5-Dimethyl-1H-pyrazol-4-yl)amino)isonicotinic acid]
100 to 1000	Cc1nn(C2CCNCC2)cc1Nc1cnccc1C(=O)O [Compound 69, 3-((3-methyl-1-(piperidin-4-yl)-1H-pyrazol-4-yl)amino) isonicotinic acid]
1 to 100	Cc1cn(-c2ccccc2C#N)nc1Nc1cnccc1C(=O)O [Compound 71, 3-((1-(2-cyanophenyl)-4-methyl-1H-pyrazol-3-yl)amino) isonicotinic acid]
1000 to 10000	Cc1cc(Nc2cnccc2C(=O)O)n(-c2ccccc2)n1 [Compound 61, 3-((3-methyl-1-phenyl-1H-pyrazol-5-yl)amino) isonicotinic acid]
1000 to 10000	CNC(=O)c1ccc(-n2ncc(Nc3cnccc3C(=O)O)c2C)cc1 [Compound 58, 3-((5-methyl-1-(4-(methylcarbamoyl)phenyl)-1H-pyrazol-4-yl)amino) isonicotinic acid]
100 to 1000	O=C(O)c1ccncc1Nc1nn(-c2ccccc2)cc1-c1ccccc1 [Compound 42, 3-((1,4-diphenyl-1H-pyrazol-3-yl)amino)isonicotinic acid]
10000 to 100000	COc1ccc(-n2nc(C)c(Nc3cnccc3C(=O)O)c2C)cc1 [Compound 75, 3-((1-(4-methoxyphenyl)-3,5-dimethyl-1H-pyrazol-4-yl)amino)isonicotinic acid]
10000 to 100000	CN1CCN(CCn2cc(-c3ccccc3)c(Nc3cnccc3C(=O)O)n2)CC1 [Compound 34, 3-((1-(2-(4-Methylpiperazin-1-yl)ethyl)-4-phenyl-1H-pyrazol-3-yl)amino)isonicotinic acid]
1 to 100	O=C(O)c1ccncc1Nc1nn(CCN2CCC(F)(F)CC2)cc1-c1ccccc1 [Compound 14, 3-((1-(2-(4,4-Difluoropiperidin-1-yl)ethyl)-4-phenyl-1H-pyrazol-3-yl)amino)isonicotinic acid]
1 to 100	Cn1nc(-c2ccccc2)cc1Nc1cnccc1C(=O)O [Compound 6]
10000 to 100000	Cc1nn(C2CCCN(C)CC2)cc1Nc1cnccc1C(=O)O (stereo not shown) [Compound 111, 3-(3-methyl-1-(1-methylazepan-4-yl)-1H-pyrazol-4-ylamino) isonicotinic acid]

IC50 [nM]	SMILES
1 to 100	Cc1c(Nc2cnccc2C(=O)O)nn(CCN2CCC(F)(F)CC2)c1-c1ccccc1 [Compound 67, 3-((1-(2-(4,4-difluoropiperidin-1-yl)ethyl)-4-methyl-5-phenyl-1H-pyrazol-3-yl)amino)isonicotinic acid]
1000 to 10000	O=C(O)c1ccncc1Nc1cn(-c2ccccc2)nc1-c1ccccc1 [Compound 41, 3-((1,3-Diphenyl-1H-pyrazol-4-yl)amino)isonicotinic acid]
100 to 1000	Cc1c(Nc2cnccc2C(=O)O)cnn1Cc1ccccc1 [Compound 33, 3-((1-benzyl-5-methyl-1H-pyrazol-4-yl)amino)isonicotinic acid]
10000 to 100000	Cc1nn(-c2ccc(O)cc2)c(C)c1Nc1cnccc1C(=O)O [Compound 76, 3-((1-(4-hydroxyphenyl)-3,5-dimethyl-1H-pyrazol-4-yl)amino)isonicotinic acid]
1 to 100	Cn1nc(-c2ccc(Cl)cc2)cc1Nc1cnccc1C(=O)O [Compound 24, 3-((3-(4-Chlorophenyl)-1-methyl-1H-pyrazol-5-yl)amino) isonicotinic acid]
1000 to 10000	Cc1c(Nc2cnccc2C(=O)O)cnn1C1CCNCC1 [Compound 68, 3-((5-methyl-1-(piperidin-4-yl)-1H-pyrazol-4-yl)amino)isonicotinic acid]
100 to 1000	O=C(O)c1ccncc1Nc1cc(-c2ccccc2)nn1-c1ccccc1 [Compound 21, 3-((1,3-Diphenyl-1H-pyrazol-5-yl)amino)isonicotinic acid]
1 to 100	CN(C)CCCn1cc(-c2ccccc2)c(Nc2cnccc2C(=O)O)n1 [Compound 51, 3-((1-(3-(dimethylamino)propyl)-4-phenyl-1H-pyrazol-3-yl)amino) isonicotinic acid]
100 to 1000	Cc1nn(C2CCCNCC2)cc1Nc1cnccc1C(=O)O (single isomer, unassigned) [Compound 116]
100 to 1000	Cn1cc(-c2cccc(F)c2)c(Nc2cnccc2C(=O)O)n1 [Compound 9, 3-((4-(3-Fluorophenyl)-1-methyl-1H-pyrazol-3-yl)amino) isonicotinic acid]
1000 to 10000	N[C@H]1CC[C@@H](n2nc(-c3ccccc3)cc2Nc2cnccc2C(=O)O)CC1 [Compound 37, 3-((1-((cis)-4-aminocyclohexyl)-3-phenyl-1H-pyrazol-5-yl)amino)isonicotinic acid]
100 to 1000	O=C(O)c1ccncc1Nc1nn(CCC(F)(F)F)cc1-c1ccncc1 [Compound 74, 3-((4-(pyridin-4-yl)-1-(3,3,3-trifluoropropyl)-1H-pyrazol-3-yl)amino)isonicotinic acid]
1000 to 10000	CN(C)CCn1ncc(-c2ccccc2)c1Nc1cnccc1C(=O)O [Compound 65, 3-((1-(2-(dimethylamino)ethyl)-4-phenyl-1H-pyrazol-5-yl)amino)isonicotinic acid]
100 to 1000	Cc1c(Nc2cnccc2C(=O)O)cnn1C1CCCN(C)CC1 (stereo not shown) [Compound 112, 3-((5-methyl-1-(1-methylazepan-4-yl)-1H-pyrazol-4-yl)amino)isonicotinic acid]
1000 to 10000	N[C@H]1CC[C@H](n2nc(-c3ccccc3)cc2Nc2cnccc2C(=O)O)CC1 [Compound 38, 3-((1-((trans)-4-aminocyclohexyl)-3-phenyl-1H-pyrazol-5-yl)amino)isonicotinic acid]
